≈ marks a conversion by molar mass, not a printed value.
Key:
[1] = biological target: T1, acid ceramidase (Homo sapiens, UniProt Q13510); experiment: Acid ceramidase inhibition, biochemical fluorescent assay with cell lysates overexpressing acid ceramidase, substrate Rbm14-12; conditions: substrate Rbm14-12 6.3 μM, pH 4.5, 1 hr preincubation at RT
T1 construct: Cell lysates overexpressing acid ceramidase were used as the enzyme source; expressed in transfected cells
T1 sequence (Q13510 22-395): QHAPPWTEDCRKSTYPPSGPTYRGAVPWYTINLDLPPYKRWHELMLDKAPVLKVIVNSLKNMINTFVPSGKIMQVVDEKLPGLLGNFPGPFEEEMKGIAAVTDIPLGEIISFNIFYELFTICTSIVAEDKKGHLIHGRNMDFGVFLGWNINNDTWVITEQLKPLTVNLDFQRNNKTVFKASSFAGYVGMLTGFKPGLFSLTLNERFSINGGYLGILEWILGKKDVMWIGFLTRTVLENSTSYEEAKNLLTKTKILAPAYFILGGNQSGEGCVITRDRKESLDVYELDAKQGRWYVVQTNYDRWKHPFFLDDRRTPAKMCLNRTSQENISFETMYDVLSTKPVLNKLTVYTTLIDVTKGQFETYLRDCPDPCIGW
Experimental: The ability of exemplary compounds to inhibit acid ceramidase was measured.
Cell lysates overexpressing acid ceramidase were used as the enzyme source for compound potency determination in a biochemical fluorescent assay. Briefly, compounds were preincubated with 10 μg protein of cell lysates in a dose-response manner for 1 hr at RT in the assay buffer containing 25 mM NaAC and 100 mM NaCl, pH 4.5. The reaction was initiated by the addition of substrate Rbm14-12 at a final concentration of 6.3 μM. The reaction was run at RT for 1 hr before it was stopped by the addition of the stopping buffer containing 20% methanol (v/v), 1 mg/ml NaIO4, 0.1 M glycine, pH 10.6. The samples were incubated with the stopping buffer at RT for 1 hr to allow the fluorescent product to be formed. Finally, the plate was read with SpectraMax i3 plate reader (Molecular Devices) at ex360 nm and em446 nm. Data were collected and used to determine the IC50 values of compounds by curve fitting to the four-parameter inhibition equation.

[2] = Compound solubility in water

SMILES | IC50 [1] [nM] | solubility [2] [µg/mL]
COc1nc2cc(N3CCOCC3)ccc2n1C(=O)NCCc1ccccc1 [Example 29b, 2-methoxy-5-morpholino-N-phenethyl-1H-benzo[d]imidazole-1-carboxamide] | 200 to 1000 | 3.6 (≈ 9.46 µM)
Cn1c(=O)n(C(=O)NCCc2ccccc2)c2cc(-c3cncnc3)ccc21 [Example 32a, 3-Methyl-2-oxo-N-phenethyl-6-(pyrimidin-5-yl)-2,3-dihydro-1H-benzo[d]imidazole-1-carboxamide] | > 1000 | 0.9 (≈ 2.41 µM)
Cn1c(=O)n(C(=O)NCCc2ccccc2)c2ccc(-c3cncnc3)cc21 [Example 32b, 3-methyl-2-oxo-N-phenethyl-5-(pyrimidin-5-yl)-2,3-dihydro-1H-benzo[d]imidazole-1-carboxamide] | > 1000 | 0.3 (≈ 0.803 µM)
COc1nc2c(C3CCN(C)CC3)cccc2n1C(=O)NCCc1ccccc1 [Example 33, 2-Methoxy-4-(1-methylpiperidin-4-yl)-N-phenethyl-1H-benzo[d]imidazole-1-carboxamide] | 200 to 1000 | 27 (≈ 68.8 µM)
CCOc1nc2ccccc2n1C(=O)NCCc1ccccc1 [Example 36, 2-Ethoxy-N-phenethyl-1H-benzo[d]imidazole-1-carboxamide] | < 200 | 8.4 (≈ 27.2 µM)
O=C(NCCc1ccccc1)n1c(Oc2ccccc2)nc2ccccc21 [Example 37, N-Phenethyl-2-phenoxy-1H-benzo[d]imidazole-1-carboxamide] | < 200 | 0.2 (≈ 0.56 µM)
COc1cc2ncn(C(=O)NCCc3ccccc3)c2cc1N1CCOCC1 [Example 38a, 5-Methoxy-6-morpholino-N-phenethyl-1H-benzo[d]imidazole-1-carboxamide] | < 200 | 20.4 (≈ 53.6 µM)
COc1cc2c(cc1N1CCOCC1)ncn2C(=O)NCCc1ccccc1 [Example 38b, 6-methoxy-5-morpholino-N-phenethyl-1H-benzo[d]imidazole-1-carboxamide] | < 200 | 18.3 (≈ 48.1 µM)
COc1cc(N2CCOCC2)cc2c1ncn2C(=O)NCCc1ccccc1 [Example 39, 4-Methoxy-6-morpholino-N-phenethyl-1H-benzo[d]imidazole-1-carboxamide] | < 200 | 16.3 (≈ 42.8 µM)
COc1c(N2CCOCC2)ccc2c1ncn2C(=O)NCCc1ccccc1 [Example 40, 4-Methoxy-5-morpholino-N-phenethyl-1H-benzo[d]imidazole-1-carboxamide] | < 200 | 10.5 (≈ 27.6 µM)
O=C(NCCN1CCOCC1)n1cnc2ccccc21 [Example 41, N-(2-Morpholinoethyl)-1H-benzo[d]imidazole-1-carboxamide] | > 1000 | 32 (≈ 117 µM)
O=C(NCCOCc1ccccc1)n1cnc2ccccc21 [Example 42, N-(2-(Benzyloxy)ethyl)-1H-benzo[d]imidazole-1-carboxamide] | < 200 | 17.7 (≈ 59.9 µM)
O=C(NCCCOc1ccccc1)n1cnc2ccccc21 [Example 43, N-(3-Phenoxypropyl)-1H-benzo[d]imidazole-1-carboxamide] | < 200 | 3.5 (≈ 11.9 µM)
CN1CCC(c2cccc3c2ncn3C(=O)NCCCc2ccccc2)CC1 [Example 44, 4-(1-Methylpiperidin-4-yl)-N-(3-phenylpropyl)-1H-benzo[d]imidazole-1-carboxamide] | < 200 | 23.2 (≈ 61.6 µM)
CN1CCC(c2cccc3c2ncn3C(=O)NCCOc2ccccc2)CC1 [Example 45, 4-(1-Methylpiperidin-4-yl)-N-(2-phenoxyethyl)-1H-benzo[d]imidazole-1-carboxamide] | < 200 | 23.5 (≈ 62.1 µM)
O=C(NCCOc1ccccc1)n1cnc2cc(C(F)(F)F)ccc21 [Example 46a, N-(2-Phenoxyethyl)-5-(trifluoromethyl)-1H-benzo[d]imidazole-1-carboxamide] | < 200 | 0.4 (≈ 1.15 µM)
O=C(NCCOc1ccccc1)n1cnc2ccc(C(F)(F)F)cc21 [Example 46b, N-(2-phenoxyethyl)-6-(trifluoromethyl)-1H-benzo[d]imidazole-1-carboxamide] | < 200 | 0.3 (≈ 0.859 µM)
O=C(NCCOc1ccc(F)cc1)n1cnc2ccccc21 [Example 47, N-(2-(4-Fluorophenoxy)ethyl)-1H-benzo[d]imidazole-1-carboxamide] | < 200 | 4.3 (≈ 14.4 µM)
CC(C)OCCNC(=O)n1cnc2ccccc21 [Example 48, N-(2-iso-Propoxyethyl)-1H-benzo[d]imidazole-1-carboxamide] | 200 to 1000 | 15.4 (≈ 62.3 µM)
CCCCNC(=O)n1cnc2cc(C(F)(F)F)ccc21 [Example 49a, N-Butyl-5-(trifluoromethyl)-1H-benzo[d]imidazole-1-carboxamide] | < 200 | 15.6 (≈ 54.7 µM)
CCCCNC(=O)n1cnc2ccc(C(F)(F)F)cc21 [Example 49b, N-butyl-6-(trifluoromethyl)-1H-benzo[d]imidazole-1-carboxamide] | < 200 | 12.6 (≈ 44.2 µM)
COc1ccnc2c1ncn2C(=O)NCCc1ccccc1 [Example 50, 7-Methoxy-N-phenethyl-3H-imidazo[4,5-b]pyridine-3-carboxamide] | 200 to 1000 | 9.5 (≈ 32.1 µM)
CCCCNC(=O)n1cnc2cc(OC)ccc21 [Example 51a, N-Butyl-5-methoxy-1H-benzo[d]imidazole-1-carboxamide] | < 200 | 7.2 (≈ 29.1 µM)
CCCCNC(=O)n1cnc2ccc(OC)cc21 [Example 51b, N-butyl-6-methoxy-1H-benzo[d]imidazole-1-carboxamide] | < 200 | 8.5 (≈ 34.4 µM)
CCCCNC(=O)n1cnc2c(OC)cccc21 [Example 52, N-Butyl-4-methoxy-1H-benzo[d]imidazole-1-carboxamide] | < 200 | 23.2 (≈ 93.8 µM)
O=C(NCCc1ccccc1)n1cnc2ncc(C(F)(F)F)cc21 [Example 53, N-Phenethyl-6-(trifluoromethyl)-1H-imidazo[4,5-b]pyridine-1-carboxamide] | < 200 | 4.7 (≈ 14.1 µM)
CN1CCC(c2cc(C(F)(F)F)cc3c2ncn3C(=O)NCCc2ccccc2)CC1 [Example 54, 4-(1-Methylpiperidin-4-yl)-N-phenethyl-6-(trifluoromethyl)-1H-benzo[d]imidazole-1-carboxamide] | < 200 | 22.7 (≈ 52.7 µM)

Results, then the compound that gave them:

IC50 [1] [nM] | solubility [2] [µg/mL] | SMILES
< 200 | 2.6 (≈ 8.8 µM) | COc1ccc2c(c1)ncn2C(=O)NCCc1ccccc1 [Example 25a, 5-Methoxy-N-phenethyl-1H-benzo[d]imidazole-1-carboxamide]
< 200 | 15 (≈ 50.8 µM) | COc1ccc2ncn(C(=O)NCCc3ccccc3)c2c1 [Example 25b, 6-methoxy-N-phenethyl-1H-benzo[d]imidazole-1-carboxamide]
< 200 | 0.5 (≈ 1.5 µM) | O=C(NCCc1ccccc1)n1cnc2cc(C(F)(F)F)ccc21 [Example 26a, N-Phenethyl-5-(trifluoromethyl)-1H-benzo[d]imidazole-1-carboxamide]
< 200 | 2.6 (≈ 7.8 µM) | O=C(NCCc1ccccc1)n1cnc2ccc(C(F)(F)F)cc21 [Example 26b, N-phenethyl-6-(trifluoromethyl)-1H-benzo[d]imidazole-1-carboxamide]
< 200 | 7.8 (≈ 26.4 µM) | COc1cccc2c1ncn2C(=O)NCCc1ccccc1 [Example 27, 4-Methoxy-N-phenethyl-1H-benzo[d]imidazole-1-carboxamide]
< 200 | 1.6 (≈ 4.3 µM) | COc1nc2cc(-c3cccnc3)ccc2n1C(=O)NCCc1ccccc1 [Example 30a, 2-Methoxy-N-phenethyl-5-(pyridin-3-yl)-1H-benzo[d]imidazole-1-carboxamide]
< 200 | 3.9 (≈ 10.5 µM) | COc1nc2ccc(-c3cccnc3)cc2n1C(=O)NCCc1ccccc1 [Example 30b, 2-methoxy-N-phenethyl-6-(pyridin-3-yl)-1H-benzo[d]imidazole-1-carboxamide]
< 200 | 7.1 (≈ 19 µM) | COc1nc2ccc(-c3cncnc3)cc2n1C(=O)NCCc1ccccc1 [Example 31a, 2-Methoxy-N-phenethyl-6-(pyrimidin-5-yl)-1H-benzo[d]imidazole-1-carboxamide]
< 200 | 8.6 (≈ 23 µM) | COc1nc2cc(-c3cncnc3)ccc2n1C(=O)NCCc1ccccc1 [Example 31b, 2-methoxy-N-phenethyl-5-(pyrimidin-5-yl)-1H-benzo[d]imidazole-1-carboxamide]
< 200 | 0.5 (≈ 1.56 µM) | O=C(NCCc1ccccc1)n1c(OC2CC2)nc2ccccc21 [Example 34, 2-Cyclopropoxy-N-phenethyl-1H-benzo[d]imidazole-1-carboxamide]
< 200 | 0.7 (≈ 2.16 µM) | CC(C)Oc1nc2ccccc2n1C(=O)NCCc1ccccc1 [Example 35, 2-iso-Propoxy-N-phenethyl-1H-benzo[d]imidazole-1-carboxamide]
